Results on one compound are retold here after patent US12209142B2, “SARS-CoV-2 epitope-targeted peptide immunostimulants” (Institute for Systems Biology, priority 2020, dated 2025).

This assay has as its system K. pneumoniae cells (strain BAA 1705). As to the kind of experiment: Gentamicin protection assay: phagocytosis and opsonophagocytic killing (OPK) by macrophages. The format is cell-based, Klebsiella pneumoniae. An outline of the steps: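 Strain BAA 1705 treated with DNP-conjugated EPIs (5 μM), opsonized with anti-DNP antibody, then given to murine bone-marrow macrophages at MOI 50 for 0.5 h at 37° C. Extracellular bacteria killed with gentamicin (100 μg/ml). Macrophages lysed at 1 h (phagocytosis) and 24 h (OPK); intracellular CFU counted on LB agar, in triplicate.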

Where a SMILES comes first, the peptide text is derived from it. Bridges are numbered along the chain shown (N, C = ends). Triazole bridges read from a SMILES are 1,4-linked. [ ]: non-standard residue; d: D form. The star is where a group is joined. Biotin = O=C1N[C@H]2[C@H](CS[C@H]2CCCCC(=O)*)N1; Lys(N3) = [N-]=[N+]=NCCCC[C@H](N)C(=O)O; PEG5 = NCCOCCOCCOCCOCCOCCC(=O)O; Pra = C#CC[C@H](N)C(=O)O

For `CC(C)C[C@@H]1NC(=O)[C@@H](NC(=O)CCOCCOCCOCCOCCOCCNC(=O)CCCC[C@@H]2SC[C@@H]3NC(=O)N[C@@H]32)Cc2cn(nn2)CCCC[C@@H](C(N)=O)NC(=O)[C@H](Cc2ccccc2)NC(=O)[C@H](Cc2ccccc2)NC(=O)[C@H](Cc2ccccc2)NC(=O)[C@H](CC(C)C)NC1=O` [cy(LLFFF)] ({Biotin-PEG5}-[Pra]LLFFF[Lys(N3)]-NH2; triazole 1-7; N-terminus and C-terminus assumed), for the setting “macrophages harvested at 6 hrs”, the “CFU at 6 hrs, DNP-conjugated EPI and anti-DNP antibody” value was “more than 80,000 CFU”; the “cell counts at 6 hrs, DNP-conjugated EPI without antibody” value is recorded as ~35,000. Under “macrophages harvested at 24 h”, the “colony counts at 24 h (OPK)” value is recorded as “little to no cell counts”.
